Test results from patent US12263248B2, “Compounds and compositions for intracellular delivery of therapeutic agents” (ModernaTX, Inc., priority 2018, dated 2025).
One block for each compound: values may come before it.

Key:
hEPO mRNA = test: Pretreatment study in Cynomolgus monkeys (standard MC3 formulation, hEPO mRNA); format: in vivo; conditions: MC3 formulation once weekly for four weeks
Description: The effects of pretreatment to non-human primates were evaluated using a standard MC3 formulation including an mRNA encoding hEPO. Male monkeys were administered the nanoparticle composition once weekly for four weeks at a dose rate of 5 ml/kg/h and were pretreated with either methotrexate or dexamethasone.
As shown, in the absence of any pretreatment, maximal expression levels decreased nearly 70% over the course of the study.

[1] = N/P 3, i.v. bolus at 5 mpk, Sprague Dawley rats; 5 mg/kg
[2] = Encapsulation efficiency of RNA (QUANT-IT RIBOGREEN RNA assay); format: physicochemical
Procedure, shortened: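 RiboGreen fluorescence (ex ~480, em ~520 nm) compared between intact samples and Triton X-100-lysed samples after 15 min at 37 °C in TE buffer, pH 7.5. Percent free RNA is the blank-corrected intact/disrupted ratio.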

[3] = Particle size and polydispersity index of nanoparticle compositions (Zetasizer Nano ZS); format: physicochemical
Procedure, shortened: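 In 1×PBS, the compositions were sized on a Zetasizer Nano ZS, which also reported their polydispersity index.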

[4] = Metabolite identification of Compound 18 in human plasma; format: in vitro ADME; parameters: key to Detection in incubation: +: Detected; ND: Not detected; conditions: for Detection in incubation: Compound 18 (10 μM), human plasma
Description: Metabolite Identification: Compound 18 (10 μM) was incubated with human plasma (29.0 mg protein/incubation) in incubation mixtures (200 μL final incubation volume) that consisted of 50/50v/v neat plasma (undiluted)/substrate solution in 50 mM phosphate buffer, pH 7.4). The plasma was obtained from male and female donors and contained K2EDTA anticoagulant. Reactions were started by addition of the substrate solution to human plasma and were stopped at four designated time points (0, 30, 60 and 90 min) by the addition of 600 μL of stop reagent (acetonitrile). Stopped incubation samples were centrifuged (e.g., 10,000×g for 10 min at 10° C.) and the supernatant fractions were analyzed by LC-MS/MS to characterize the metabolites formed from compound 18. Additional incubations were performed with the positive control procaine (5 μM) to establish competency of the test system. Samples were analyzed by LC-MS/MS.

human hepatocytes = test: Metabolite profiling of Compound 18 with human hepatocytes; format: in vitro ADME; parameters: key to Detection in incubation: +: Detected; ND: Not detected; conditions: for Detection in incubation: Compound 18 (10 μM), human hepatocytes
Description: The results of metabolic profiling and characterization for compound 18 incubated with human hepatocytes or human plasma are summarized in Tables 41 and 42, respectively.

[5] = Lipid clearance from mouse tissues after weekly dosing; format: in vivo; conditions: 0.25 mg/kg mRNA on days 1, 8, and 15
Description: Repeat dosing of mRNA in an MC3-based LNP for a therapeutic indication would be expected to lead to accumulation of MC3 in tissues, based on the measured half-life. Therefore it was investigated whether the favorable single dose pharmacokinetics of compound 18 were maintained with weekly dosing. Clearance of MC3 and compound 18 from multiple mouse tissues was measured after dosing 0.05 mg/kg mRNA on day 1, 8 and 15 (FIG. 30A). Following dosing with MC3 LNPs, lipid was detected in liver, spleen, plasma, kidney, heart and lung, with liver and spleen containing the largest concentrations (FIG. 30A, for full panel of tissues see FIG. 35A). […] Compound 18 was also detected in plasma, lung, and kidney, but not in heart (FIG. 35A).
In vitro metabolite identification studies using compound 18 were also performed. […] The disappearance of parent compound 18 and the primary metabolite, compound 166, from mouse liver tissue was measured after dosing 0.25 mg/kg mRNA on days 1, 8, and 15.

Compound: CN(Cc1cnc2nc(N)nc(N)c2n1)c1ccc(C(=O)N[C@@H](CCC(=O)O)C(=O)O)cc1 [Methotrexate, methotrexate]
effect of pretreatment on hEPO protein expression (hEPO mRNA): did not confer any particular beneficial effect

Compound: CCCCCCCCC(CC)OC(=O)CCCCCCCN(CCCCCCCC(=O)OC(CCCCCCCC)CCCCCCCC)CCCNc1c(NC)c(=O)c1=O (centres unmarked) [Compound 301, Heptadecan-9-yl 8-((3-((2-(methylamino)-3,4-dioxocyclobut-1-en-1-yl)amino)propyl)(8-oxo-8-(undecan-3-yloxy)octyl)amino)octanoate]
Clinical Observations [1]: signs of decreased activity
% EE ([2]; N/P 3 (Table 43)): 86%
% EE ([2]; N/P 5.8 (Table 43)): 96%
Diameter ([3]; N/P 3 (Table 43)): 68 nm
PDI ([3]; N/P 3 (Table 43)): 0.09
Diameter ([3]; N/P 5.8 (Table 43)): 69 nm
PDI ([3]; N/P 5.8 (Table 43)): 0.24

Proposed biotransformation ([4]; Compound 18 (10 μM) with human plasma (29.0 mg protein/incubation)): Ester hydrolysis
Detection in incubation ([4]; 30 min): +
Detection in incubation ([4]; 60 min): +
Detection in incubation ([4]; 90 min): +
Proposed biotransformation (human hepatocytes; Compound 18 (10 μM) with human hepatocytes (1 million cells/mL)): Ester hydrolysis
Detection in incubation (human hepatocytes; 60 min): +
Detection in incubation (human hepatocytes; 120 min): +
Detection in incubation (human hepatocytes; 240 min): +
disappearance from mouse liver tissue [5]: rapid clearance
Compound: CCCCCCCCC(CCCCCCCC)OC(=O)CCCCCCCN(CCO)CCCCCCCC(=O)O [Compound 166, 8-((8-(Heptadecan-9-yloxy)-8-oxooctyl)(2-hydroxyethyl)amino)octanoic acid]
